Results from PubChem BioAssay AID1918938 (Molecular Pharmacology Branch, DTP, NCI, 2023).
pIC50: −log10 of the molar value.

Tested on: 556581-035-R-J1-PDC complex spheroid viability
Assay: Anticancer human tumor 556581-035-R-J1-PDC patient-derived ovarian carcinoma cell line growth inhibition
Details: for pIC50: curve of first compound; for viability, T/C: stronger effect = lower value
Description: Multicellular complex tumor spheroid response to LSD1 Inhibitor Iadademstat in combination with a variety of drugs and investigational agents in selected tumor cell lines
The current study was undertaken to assess response to LSD1 inhibitors in combination with standard-of-care drugs and investigational agents in solid tumor complex spheroid models as well as in the K-562 leukemia. Complex spheroids include a stromal component modeled by human endothelial cells (HUVEC) and fibroblasts modeled by human mesenchymal stem cells (MSCs). The concentration ranges selected for each drug and investigational agent were based upon clinically achievable concentrations if the clinical Cmax of the agent was known.
Compounds. The drugs and investigational agents used in this study are listed on Table 1. All of the agents used, including staurosporine (NSC755774) and gemcitabine (NSC613327), were obtained from the Developmental Therapeutics Program, NCI. FDA-approved anticancer drugs are available from the NCI at http://dtp.nci.nih.gov/branches/dscb/oncology_drugset_explanation.html. Drugs and investigational agents were >95% pure by proton nuclear magnetic resonance (NMR) and liquid chromatography/mass spectrometry (LC/MS). Stock solutions were prepared at 400x in DMSO, stored at -70 degrees C, and diluted in fresh medium prior to their use. The final concentration of DMSO in cell culture wells never exceeded 0.25% (v/v). The FDA-approved anticancer drug set is available from the Developmental Therapeutics Program at https://dtp.cancer.gov/organization/dscb/obtaining/available_plates.htm. All drugs and investigational agents were tested over a range starting from a high concentration at or near the clinical Cmax and decreasing in half-log increments. If the clinical Cmax for an agent had not been determined, the highest concentration tested was 10 microM.
Cell Lines. The patient-derived cancer cell (PDC) lines: 292921-168-R-J2-PDC, K24384-001-R-PDC, and 521955-158-R2-J5-PDC pancreatic carcinomas, 556581-035-R-J1 ovarian carcinoma, 324938-238-R-J1-PDC, 855422-203-R-J1-PDC and 883617-216-R-J1-PDC urothelial bladder carcinomas, 743489-274-T-PDC renal cell carcinoma, 138582-R-J1 Merkel cell tumor, K60290-347-R-J1 and K57222-313-R-J1-PDC glioblastomas, 653999-131-R-J2-PDC, LG0703-F948-PDC, and 349418-098-R-PDC non-small cell lung carcinomas, 885512-296-R-J2-PDC, 171881-019-R-J1-PDC breast carcinomas and 186277-243-T-J2-PDC and 233499-124-R-J2-PDC colon carcinomas were obtained from the NCI Patient-Derived Models Repository (PDMR, https://pdmr.cancer.gov). The established cell lines NCI/ADR-RES (RRID:CVCL_14520 and OVCAR-5 (RRID:CVCL_1628) ovarian carcinomas, 786-O (RRID:CVCL_1051) and A498 (RRID:CVCL_A498) renal cell carcinoma, NCI-H211 (ATCC, cat. CRL-5824; RRID:CVCL_1529), NCI-H196 (ATCC, cat. CRL-5823, RRID:CVCL_1509), SW 1271 (ATCC, cat. CRL-2177, RRID:CVCL_1716) and NCI-H1876 (ATCC, cat. CRL-5902, RRID:CVCL_1503) small cell lung carcinomas, MDA-MB-231 (RRID:CVCL_0062) and MDA-MB-468 (RRID:CVCL_0419)breast carcinomas (10-12). Pooled donor human umbilical vein endothelial cells (HUVEC, Lonza, cat. CC-2519) and human mesenchymal stem cells (hMSC, Lonza, cat. PT-2501) were purchased from Lonza (Walkersville, MD).
Cell Culture. All cells were maintained in an incubator at 37 degrees C and 5% CO2 with 95% humidity. The PDC lines were cultured according to standard operating procedures established by the NCI PDMR (https://pdmr.cancer.gov). Briefly all PDCs were thawed and cultured in Matrigel-coated flasks prepared with a working solution of 1X Ham's F-12 nutrient mix, without supplementation (Invitrogen, Waltham, MA, cat. 11765054), 100 U/mL penicillin-streptomycin (Invitrogen, cat. 15140122), and 2.5% Matrigel (Corning Inc., Corning, NY, cat. 354248) for the first three passages. […]

[1] = second compound 0.1 µM, first compound 0.000949 µM
[2] = second compound 0.1 µM, first compound 0.003 µM
[3] = second compound 0.1 µM, first compound 0.00949 µM
[4] = second compound 0.1 µM, first compound 0.03 µM
[5] = second compound 0.1 µM, first compound 0.0949 µM
[6] = second compound 0.1 µM, first compound 0.3 µM
[7] = second compound 0.316 µM, first compound 0.000949 µM
[8] = second compound 0.316 µM, first compound 0.003 µM
[9] = second compound 0.316 µM, first compound 0.00949 µM
[10] = second compound 0.316 µM, first compound 0.03 µM
[11] = second compound 0.316 µM, first compound 0.0949 µM
[12] = second compound 0.316 µM, first compound 0.3 µM
[13] = second compound 1 µM, first compound 0.000949 µM
[14] = second compound 1 µM, first compound 0.003 µM
[15] = second compound 1 µM, first compound 0.00949 µM
[16] = second compound 1 µM, first compound 0.03 µM
[17] = second compound 1 µM, first compound 0.0949 µM
[18] = second compound 1 µM, first compound 0.3 µM
[19] = second compound 3.16 µM, first compound 0.000949 µM
[20] = second compound 3.16 µM, first compound 0.003 µM
[21] = second compound 3.16 µM, first compound 0.00949 µM
[22] = second compound 3.16 µM, first compound 0.03 µM
[23] = second compound 3.16 µM, first compound 0.0949 µM
[24] = second compound 3.16 µM, first compound 0.3 µM
[25] = second compound 10 µM, first compound 0.000949 µM
[26] = second compound 10 µM, first compound 0.003 µM
[27] = second compound 10 µM, first compound 0.00949 µM
[28] = second compound 10 µM, first compound 0.03 µM
[29] = second compound 10 µM, first compound 0.0949 µM
[30] = second compound 10 µM, first compound 0.3 µM
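Further: spheroids exposed to agents for seven days.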
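Wherever viability, T/C is given: 100% = DMSO vehicle control wells.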

CCc1c2c(nc3ccc(O)cc13)-c1cc3c(c(=O)n1C2)COC(=O)[C@]3(O)CC + NC1CC1c1ccc(-c2cccc(O)c2)cc1
pIC50 (second compound 0.1 µM): > 9.02
pIC50 (second compound 0.316 µM): > 9.02
pIC50 (second compound 1 µM): > 9.02
pIC50 (second compound 3.16 µM): > 9.02
pIC50 (second compound 10 µM): > 9.02
viability, T/C [1]: 14.6%
viability, T/C [2]: 11%
viability, T/C [3]: 0.89%
viability, T/C [4]: 0.24%
viability, T/C [5]: 0.2%
viability, T/C [6]: 0.32%
viability, T/C [7]: 15.4%
viability, T/C [8]: 11.4%
viability, T/C [9]: 0.92%
viability, T/C [10]: 0.23%
viability, T/C [11]: 0.17%
viability, T/C [12]: 0.28%
viability, T/C [13]: 15.4%
viability, T/C [14]: 12.1%
viability, T/C [15]: 1.74%
viability, T/C [16]: 0.23%
viability, T/C [17]: 0.19%
viability, T/C [18]: 0.27%
viability, T/C [19]: 13.8%
viability, T/C [20]: 11.7%
viability, T/C [21]: 1.62%
viability, T/C [22]: 0.26%
viability, T/C [23]: 0.27%
viability, T/C [24]: 0.73%
viability, T/C [25]: 14.4%
viability, T/C [26]: 10.7%
viability, T/C [27]: 1.64%
viability, T/C [28]: 0.89%
viability, T/C [29]: 0.3%
viability, T/C [30]: 0.37%

Nc1ccn(C2OC(CO)C(O)C2(F)F)c(=O)n1 (stereo not given) + NC1CC1c1ccc(-c2cccc(O)c2)cc1
pIC50 (second compound 0.1 µM): 8.88
pIC50 (second compound 0.316 µM): 8.85
pIC50 (second compound 1 µM): 8.71
pIC50 (second compound 3.16 µM): 8.76
pIC50 (second compound 10 µM): 8.74
viability, T/C [1]: 58.8%
viability, T/C [2]: 28.2%
viability, T/C [3]: 22.4%
viability, T/C [4]: 26.8%
viability, T/C [5]: 29.3%
viability, T/C [6]: 27%
viability, T/C [7]: 60.1%
viability, T/C [8]: 30.7%
viability, T/C [9]: 24.3%
viability, T/C [10]: 25%
viability, T/C [11]: 29.3%
viability, T/C [12]: 27.1%
viability, T/C [13]: 74%
viability, T/C [14]: 36.5%
viability, T/C [15]: 24.2%
viability, T/C [16]: 25.4%
viability, T/C [17]: 29.9%
viability, T/C [18]: 22.9%
viability, T/C [19]: 71%
viability, T/C [20]: 31.3%
viability, T/C [21]: 28.9%
viability, T/C [22]: 26.5%
viability, T/C [23]: 28.5%
viability, T/C [24]: 29%
viability, T/C [25]: 67.2%
viability, T/C [26]: 37.3%
viability, T/C [27]: 34.1%
viability, T/C [28]: 29.8%
viability, T/C [29]: 37.1%
viability, T/C [30]: 34.1%

O=C(c1cc(Cc2n[nH]c(=O)c3ccccc23)ccc1F)N1CCN(C(=O)C2CC2)CC1 + NC1CC1c1ccc(-c2cccc(O)c2)cc1
pIC50 (second compound 0.1 µM): < 5.00
pIC50 (second compound 0.316 µM): < 5.00
pIC50 (second compound 1 µM): < 5.00
pIC50 (second compound 3.16 µM): < 5.00
pIC50 (second compound 10 µM): 5.03
viability, T/C (second compound 0.1 µM, first compound 0.0316 µM): 86.1%
viability, T/C (second compound 0.1 µM, first compound 0.1 µM): 86.2%
viability, T/C (second compound 0.1 µM, first compound 0.316 µM): 93.4%
viability, T/C (second compound 0.1 µM, first compound 1 µM): 76.6%
viability, T/C (second compound 0.1 µM, first compound 3.16 µM): 77.2%
viability, T/C (second compound 0.1 µM, first compound 10 µM): 63.4%
viability, T/C (second compound 0.316 µM, first compound 0.0316 µM): 92.3%
viability, T/C (second compound 0.316 µM, first compound 0.1 µM): 83.2%
viability, T/C (second compound 0.316 µM, first compound 0.316 µM): 74.8%
viability, T/C (second compound 0.316 µM, first compound 1 µM): 90.7%
viability, T/C (second compound 0.316 µM, first compound 3.16 µM): 72.2%
viability, T/C (second compound 0.316 µM, first compound 10 µM): 67.5%
viability, T/C (second compound 1 µM, first compound 0.0316 µM): 86.8%
viability, T/C (second compound 1 µM, first compound 0.1 µM): 83.5%
viability, T/C (second compound 1 µM, first compound 0.316 µM): 79.3%
viability, T/C (second compound 1 µM, first compound 1 µM): 69.9%
viability, T/C (second compound 1 µM, first compound 3.16 µM): 61.5%
viability, T/C (second compound 1 µM, first compound 10 µM): 58.8%
viability, T/C (second compound 3.16 µM, first compound 0.0316 µM): 84.4%
viability, T/C (second compound 3.16 µM, first compound 0.1 µM): 80.2%
viability, T/C (second compound 3.16 µM, first compound 0.316 µM): 84.9%
viability, T/C (second compound 3.16 µM, first compound 1 µM): 79.5%
viability, T/C (second compound 3.16 µM, first compound 3.16 µM): 61%
viability, T/C (second compound 3.16 µM, first compound 10 µM): 57.4%
viability, T/C (second compound 10 µM, first compound 0.0316 µM): 79.1%
viability, T/C (second compound 10 µM, first compound 0.1 µM): 76%
viability, T/C (second compound 10 µM, first compound 0.316 µM): 79.2%
viability, T/C (second compound 10 µM, first compound 1 µM): 70.6%
viability, T/C (second compound 10 µM, first compound 3.16 µM): 61.6%
viability, T/C (second compound 10 µM, first compound 10 µM): 49.4%
